Patent US10342779B2 (Therapicon S.R.L., priority 2014, dated 2019)
Like-named read-outs stand apart in the source and are kept apart here.

Legend:
[1] = dog, intravenous 3 mg/kg; cited from earlier work
[2] = cited from earlier work
[3] = system: mouse-adapted DENV-2 strain D2S10; details: for Survival at day 20: IV, 19 days after challenge
[4] = man, intravenous administration; cited from earlier work
[5] = monkey, intravenous 3 mg/kg; cited from earlier work
[6] = rats, oral 10 mg/kg; cited from earlier work
[7] = dogs, oral 10 mg/kg; cited from earlier work
CYP1A2 = molecular target: T1, CYP1A2 (Homo sapiens, UniProt P05177); details: cited from earlier work
T1 sequence (P05177 1-516): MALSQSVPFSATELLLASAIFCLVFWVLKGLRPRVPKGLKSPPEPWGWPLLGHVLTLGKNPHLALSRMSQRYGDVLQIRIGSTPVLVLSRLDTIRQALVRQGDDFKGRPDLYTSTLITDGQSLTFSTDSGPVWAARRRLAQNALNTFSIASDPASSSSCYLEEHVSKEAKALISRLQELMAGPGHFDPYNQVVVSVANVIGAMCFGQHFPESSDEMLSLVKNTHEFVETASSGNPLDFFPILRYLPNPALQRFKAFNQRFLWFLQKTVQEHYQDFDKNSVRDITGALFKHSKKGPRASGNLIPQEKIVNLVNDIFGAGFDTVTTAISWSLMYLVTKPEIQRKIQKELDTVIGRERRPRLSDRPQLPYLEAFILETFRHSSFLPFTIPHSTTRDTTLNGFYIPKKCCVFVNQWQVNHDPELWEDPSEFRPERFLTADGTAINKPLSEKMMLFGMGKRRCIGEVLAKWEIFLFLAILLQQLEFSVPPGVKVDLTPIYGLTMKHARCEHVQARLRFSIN

[8] = monkeys, oral 10 mg/kg; cited from earlier work
[9] = cited from earlier work; remark: listed apart in the source
[10] = rat, injected 5 mg/kg; cited from earlier work

Compound: COc1ccc2[nH]cc(CCNC(C)=O)c2c1 [Melatonin, N-acetyl-5-methoxytryptamine]
- apparent elimination half-life [1]: 18.6 min
- median (range) elimination half life ([2]; healthy volunteers, oral capsules 20, 30, 50, 100 mg, across all doses): 51.7 (29.5-63.2) minutes
- unchanged melatonin renal clearance ([2]; human): lower than 1%
- time of rapid decrease in serum melatonin ([2]; oral 3 mg/volunteer): 240 min
- time to increase in serum melatonin after oral administration ([2]; oral 3 mg/volunteer): ≤ 20 min
- half-life in blood ([2]; oral 100 mg): around 41 minutes
- time to maximum blood and saliva concentrations ([2]; oral 100 mg): 60 min
- AUC ([2]; oral capsules 20 mg): 1102 to 13616 ng/mL/min
- AUC ([2]; oral capsules 30 mg): 822 to 2491 ng/mL/min
- AUC ([2]; oral capsules 50 mg): 1812 to 8915 ng/mL/min
- AUC ([2]; oral capsules 100 mg): 4458 to 18229 ng/mL/min
- absolute human bioavailability, average ([2]; oral, female): 8.6%
- absolute human bioavailability, average ([2]; oral, male): 16.8%
- absolute human bioavailability, range ([2]; oral): 1-37%
- inter-subject variation of AUC of individual subjects ([2]; oral): up to 25 times
- Survival at day 20 ([3]; 75 mg/kg body weight): 4/6
- Survival at day 20 ([3]; 100 mg/kg body weight): 6/6
- Survival at day 20 ([3]; 150 mg/kg body weight): 6/6
- protection effects versus Dengue virus induced condition ([3]; 100 and 150 mg/Kg/day, 19 days treatment): Complete survival
- elimination half-life [4]: about 40 minutes
- apparent elimination half-life [5]: 33.9 min
- absolute bioavailability [6]: moderate
- absolute bioavailability [7]: high
- enzyme mediating 6-hydroxylation and O-demethylation (CYP1A2): mainly CYP1A2 mediated
- absolute bioavailability [8]: high
- solubility in water [9]: 1200 to 2400 µg/mL
- apparent elimination half-life [10]: 19.8 min
